Reference: ChEMBL document CHEMBL5465560, “Selectivity Literature for EUbOPEN Chemogenomic Library” (2024)

What was measured:
[1] = target: Mitogen-activated protein kinase 6 (Homo sapiens) (UniProt Q16659); assay: Selectivity interaction (ActivX KiNativ screen (kinase selectivity in THP-1 cell lysates)) EUB0000639a MAPK6; assay type: subcellular; conditions: lysate
[2] = target: T1, Mitogen-activated protein kinase kinase kinase 15 (Homo sapiens) (UniProt Q6ZN16); assay: Selectivity interaction (KinomeScan (DiscoverX)) EUB0000229b MAP3K15; conditions: at 10 µM
T1 sequence (whole entry): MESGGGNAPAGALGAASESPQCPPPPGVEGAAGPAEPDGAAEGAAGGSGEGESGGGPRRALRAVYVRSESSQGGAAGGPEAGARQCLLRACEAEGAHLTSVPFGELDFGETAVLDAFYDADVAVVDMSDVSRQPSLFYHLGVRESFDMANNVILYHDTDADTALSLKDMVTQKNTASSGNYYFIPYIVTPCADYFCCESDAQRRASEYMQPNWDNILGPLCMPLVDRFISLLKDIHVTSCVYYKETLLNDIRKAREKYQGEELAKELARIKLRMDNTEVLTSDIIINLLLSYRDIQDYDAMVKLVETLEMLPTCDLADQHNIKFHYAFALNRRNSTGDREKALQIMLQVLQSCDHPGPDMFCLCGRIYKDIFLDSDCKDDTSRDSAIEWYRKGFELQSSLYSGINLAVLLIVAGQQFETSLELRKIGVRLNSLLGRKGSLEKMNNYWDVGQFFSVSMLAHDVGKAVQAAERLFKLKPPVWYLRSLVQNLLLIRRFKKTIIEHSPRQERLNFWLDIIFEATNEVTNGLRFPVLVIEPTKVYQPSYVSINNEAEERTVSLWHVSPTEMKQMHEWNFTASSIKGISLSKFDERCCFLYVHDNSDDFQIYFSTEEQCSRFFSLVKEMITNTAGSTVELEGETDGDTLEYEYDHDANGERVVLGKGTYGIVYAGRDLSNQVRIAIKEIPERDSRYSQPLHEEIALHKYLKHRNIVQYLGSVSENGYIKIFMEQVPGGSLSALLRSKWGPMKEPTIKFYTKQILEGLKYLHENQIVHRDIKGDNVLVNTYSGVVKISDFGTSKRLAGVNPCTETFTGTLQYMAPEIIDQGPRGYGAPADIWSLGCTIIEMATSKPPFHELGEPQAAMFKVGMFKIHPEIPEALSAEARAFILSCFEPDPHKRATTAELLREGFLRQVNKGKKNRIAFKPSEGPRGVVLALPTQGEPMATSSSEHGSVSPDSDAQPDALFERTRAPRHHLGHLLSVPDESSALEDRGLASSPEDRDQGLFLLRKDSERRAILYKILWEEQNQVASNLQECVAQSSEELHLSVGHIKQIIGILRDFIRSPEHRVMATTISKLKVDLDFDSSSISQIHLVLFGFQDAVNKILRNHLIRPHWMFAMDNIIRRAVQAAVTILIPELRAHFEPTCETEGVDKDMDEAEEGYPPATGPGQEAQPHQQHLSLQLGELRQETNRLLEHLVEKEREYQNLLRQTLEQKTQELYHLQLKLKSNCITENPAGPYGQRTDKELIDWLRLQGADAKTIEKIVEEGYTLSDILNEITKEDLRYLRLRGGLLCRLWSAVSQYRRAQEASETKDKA

[3] = target: T2, Homeodomain-interacting protein kinase 4 (Homo sapiens) (UniProt Q8NE63); assay: Selectivity interaction (KinomeScan (DiscoverX)) EUB0000092b HIPK4; conditions: at 10 µM
T2 sequence (whole entry): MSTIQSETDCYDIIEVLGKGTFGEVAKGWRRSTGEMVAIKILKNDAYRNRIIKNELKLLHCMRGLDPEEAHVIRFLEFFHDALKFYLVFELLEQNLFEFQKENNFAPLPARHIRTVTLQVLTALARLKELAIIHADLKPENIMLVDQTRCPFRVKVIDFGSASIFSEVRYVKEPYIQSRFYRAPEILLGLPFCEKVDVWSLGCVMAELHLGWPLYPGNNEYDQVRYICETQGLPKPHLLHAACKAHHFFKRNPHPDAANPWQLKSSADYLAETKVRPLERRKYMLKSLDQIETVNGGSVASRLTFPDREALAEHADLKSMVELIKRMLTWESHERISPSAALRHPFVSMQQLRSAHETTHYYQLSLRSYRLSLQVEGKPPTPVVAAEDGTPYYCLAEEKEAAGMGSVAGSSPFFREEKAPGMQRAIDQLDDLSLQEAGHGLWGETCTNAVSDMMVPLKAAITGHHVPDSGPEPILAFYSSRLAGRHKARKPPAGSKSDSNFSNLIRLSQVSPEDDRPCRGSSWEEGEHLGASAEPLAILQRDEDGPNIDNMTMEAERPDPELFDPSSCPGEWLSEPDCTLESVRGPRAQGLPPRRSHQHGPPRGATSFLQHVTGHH

[4] = target: T3, Dual specificity tyrosine-phosphorylation-regulated kinase 2 (Homo sapiens) (UniProt Q92630); assay: Selectivity interaction (Upstate Kinase Profiler service (Millipore)) EUB0000056c DYRK2; conditions: at 1 µM
T3 sequence (whole entry): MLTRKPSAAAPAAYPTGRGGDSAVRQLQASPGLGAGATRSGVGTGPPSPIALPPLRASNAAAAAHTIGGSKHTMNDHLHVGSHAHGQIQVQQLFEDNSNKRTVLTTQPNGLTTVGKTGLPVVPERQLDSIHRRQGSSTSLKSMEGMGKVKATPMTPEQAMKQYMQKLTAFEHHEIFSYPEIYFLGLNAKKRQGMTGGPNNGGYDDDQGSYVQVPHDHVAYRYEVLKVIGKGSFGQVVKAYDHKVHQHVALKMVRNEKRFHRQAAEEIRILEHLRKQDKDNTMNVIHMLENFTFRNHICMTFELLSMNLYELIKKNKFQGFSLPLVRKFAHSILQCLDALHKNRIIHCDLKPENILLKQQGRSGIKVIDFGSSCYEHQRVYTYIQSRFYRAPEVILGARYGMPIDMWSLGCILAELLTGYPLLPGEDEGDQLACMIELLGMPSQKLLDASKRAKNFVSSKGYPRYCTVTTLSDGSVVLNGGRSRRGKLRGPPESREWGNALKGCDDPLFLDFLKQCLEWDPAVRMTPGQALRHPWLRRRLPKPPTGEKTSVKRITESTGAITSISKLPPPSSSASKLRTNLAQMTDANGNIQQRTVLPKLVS

[5] = target: Insulin receptor-related protein (Homo sapiens) (UniProt P14616); assay: Selectivity interaction (KinomeScan (DiscoverX)) EUB0000655a INSRR; conditions: at 10 µM
[6] = target: Serine/threonine-protein kinase PAK 6 (Homo sapiens) (UniProt Q9NQU5); assay: Selectivity interaction (KinomeScan (DiscoverX)) EUB0000666a PAK6; conditions: at 10 µM
Chain of Serine/threonine-protein kinase PAK 6 (Homo sapiens) (Q9NQU5 whole entry, looked up): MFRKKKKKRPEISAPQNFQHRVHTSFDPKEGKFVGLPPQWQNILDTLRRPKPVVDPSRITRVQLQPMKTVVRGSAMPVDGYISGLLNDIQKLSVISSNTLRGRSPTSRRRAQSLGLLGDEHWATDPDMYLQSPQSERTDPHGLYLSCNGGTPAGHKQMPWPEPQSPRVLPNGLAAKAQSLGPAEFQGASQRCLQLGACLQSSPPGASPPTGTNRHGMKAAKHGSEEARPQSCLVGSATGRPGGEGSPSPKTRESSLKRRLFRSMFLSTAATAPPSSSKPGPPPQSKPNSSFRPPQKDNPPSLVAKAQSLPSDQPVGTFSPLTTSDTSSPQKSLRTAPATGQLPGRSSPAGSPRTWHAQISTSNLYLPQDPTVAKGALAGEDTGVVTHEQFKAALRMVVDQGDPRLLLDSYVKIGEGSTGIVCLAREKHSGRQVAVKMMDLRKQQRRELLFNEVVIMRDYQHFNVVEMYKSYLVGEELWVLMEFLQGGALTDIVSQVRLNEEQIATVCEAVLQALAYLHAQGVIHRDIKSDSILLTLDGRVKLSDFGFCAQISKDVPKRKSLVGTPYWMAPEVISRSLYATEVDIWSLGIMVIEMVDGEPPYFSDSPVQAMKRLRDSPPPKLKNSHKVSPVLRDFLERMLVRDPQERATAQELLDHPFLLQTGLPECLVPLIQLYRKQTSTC

Chain of Mitogen-activated protein kinase 6 (Homo sapiens) (Q16659 whole entry): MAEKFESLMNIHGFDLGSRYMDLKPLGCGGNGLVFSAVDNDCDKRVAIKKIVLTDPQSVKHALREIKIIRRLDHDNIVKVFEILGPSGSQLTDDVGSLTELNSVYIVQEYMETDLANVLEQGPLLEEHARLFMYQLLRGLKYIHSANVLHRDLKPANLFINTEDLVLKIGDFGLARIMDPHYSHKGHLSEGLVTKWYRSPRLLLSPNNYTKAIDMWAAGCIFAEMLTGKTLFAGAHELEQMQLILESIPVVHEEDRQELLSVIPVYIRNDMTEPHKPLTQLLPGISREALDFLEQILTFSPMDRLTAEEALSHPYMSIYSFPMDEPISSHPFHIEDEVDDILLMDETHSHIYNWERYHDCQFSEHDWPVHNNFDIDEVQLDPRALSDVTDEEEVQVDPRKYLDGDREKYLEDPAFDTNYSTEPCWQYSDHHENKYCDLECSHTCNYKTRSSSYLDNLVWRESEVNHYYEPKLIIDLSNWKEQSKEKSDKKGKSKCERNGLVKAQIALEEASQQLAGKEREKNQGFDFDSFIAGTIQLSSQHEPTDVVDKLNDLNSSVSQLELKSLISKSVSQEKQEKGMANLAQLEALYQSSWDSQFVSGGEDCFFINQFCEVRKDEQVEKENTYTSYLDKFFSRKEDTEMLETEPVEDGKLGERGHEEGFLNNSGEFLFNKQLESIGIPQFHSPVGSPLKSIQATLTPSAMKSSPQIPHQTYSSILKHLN
Chain of Insulin receptor-related protein (Homo sapiens) (P14616 27-742 limits assumed): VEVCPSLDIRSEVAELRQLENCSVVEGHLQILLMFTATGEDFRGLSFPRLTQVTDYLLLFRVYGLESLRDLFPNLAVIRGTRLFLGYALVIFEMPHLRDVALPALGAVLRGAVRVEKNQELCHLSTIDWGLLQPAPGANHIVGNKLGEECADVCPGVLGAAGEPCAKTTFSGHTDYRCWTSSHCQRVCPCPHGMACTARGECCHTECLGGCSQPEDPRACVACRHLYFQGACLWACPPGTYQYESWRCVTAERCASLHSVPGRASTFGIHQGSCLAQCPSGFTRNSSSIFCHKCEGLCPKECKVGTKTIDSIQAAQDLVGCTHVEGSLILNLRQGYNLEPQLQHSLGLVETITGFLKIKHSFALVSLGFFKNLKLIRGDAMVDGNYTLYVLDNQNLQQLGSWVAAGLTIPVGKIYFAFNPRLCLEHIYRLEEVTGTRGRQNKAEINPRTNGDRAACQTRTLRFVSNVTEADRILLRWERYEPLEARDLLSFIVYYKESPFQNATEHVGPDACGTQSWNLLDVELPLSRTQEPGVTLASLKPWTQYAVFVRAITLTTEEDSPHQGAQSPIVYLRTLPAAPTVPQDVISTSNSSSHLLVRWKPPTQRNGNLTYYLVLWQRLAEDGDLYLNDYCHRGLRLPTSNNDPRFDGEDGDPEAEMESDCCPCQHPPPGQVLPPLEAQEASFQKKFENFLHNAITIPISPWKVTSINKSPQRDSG
Chain of Insulin receptor-related protein (Homo sapiens) (P14616 747-1297 limits assumed): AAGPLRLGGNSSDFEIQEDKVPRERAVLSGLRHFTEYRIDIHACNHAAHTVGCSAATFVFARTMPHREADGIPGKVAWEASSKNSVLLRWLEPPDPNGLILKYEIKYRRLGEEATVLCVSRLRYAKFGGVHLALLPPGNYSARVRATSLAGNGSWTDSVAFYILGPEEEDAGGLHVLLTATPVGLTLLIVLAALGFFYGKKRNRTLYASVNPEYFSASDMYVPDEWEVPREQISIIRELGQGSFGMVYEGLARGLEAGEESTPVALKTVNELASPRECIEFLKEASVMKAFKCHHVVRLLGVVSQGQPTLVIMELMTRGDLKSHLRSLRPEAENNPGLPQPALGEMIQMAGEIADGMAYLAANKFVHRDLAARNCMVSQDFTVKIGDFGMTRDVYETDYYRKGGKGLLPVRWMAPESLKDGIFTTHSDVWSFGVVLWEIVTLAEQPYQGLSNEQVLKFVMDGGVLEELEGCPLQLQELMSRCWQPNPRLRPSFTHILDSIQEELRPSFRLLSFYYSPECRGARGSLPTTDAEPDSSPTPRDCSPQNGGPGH

CC[C@@H]1[C@H](F)C(=O)N[C@@H]1COc1nccc2cc(C(N)=O)c(OC)cc12 [ZIMLOVISERTIB]
% of inhibition ([1]; at 0.01 µM): -20%
% of inhibition ([1]; at 0.04 µM): -5.5%
% of inhibition ([1]; at 0.2 µM): -11.8%
% of inhibition ([1]; at 1 µM): -1.3%
% of inhibition ([1]; at 5 µM): -1%

COc1cc(N(C)c2ccnc3ccc(C(F)(F)F)cc23)cc(OC)c1OC
% binding [2]: 100%

CCC(=O)N1CCN(c2ccc(-n3c(=O)ccc4cnc5ccc(-c6cnc7ccccc7c6)cc5c43)cc2C(F)(F)F)CC1
% of control [3]: 4.6%

Cc1ccc(-c2ccc3c(ccc4sc5c(c43)NC[C@@H](C)NC5=O)n2)cn1
% of inhibition [4]: 27%

CN(C)CCOc1ccc(-c2nc(-c3ccncc3)c(-c3ccc4c(c3)CC/C4=N\O)[nH]2)cc1
% of control [5]: 100%

O=C(NOC[C@H](O)CO)c1ccc(F)c(F)c1Nc1ccc(I)cc1F
% of control [6]: 100%
